The conditions of data set [1]: single components, MEK, acetone; cited from earlier work.
Data set [2] in a line: Hansen solubility parameters of blends, single components, MEK and acetone. The conditions noted are these: MEK, acetone, δ^2 = δD^2 + δP^2 + δH^2. The text has this:
In some embodiments, a solvent composition according to the present disclosure includes an acetate ester, such as MA, EA, or TBAc, in combination with additional reagents to increase dispersion and decrease hydrogen bonding and/or to decrease the polarity of the composition. […] Accordingly, in some embodiments, a solvent composition according to the present disclosure may be formulated according to Hansen solubility parameters (HSP) (Hansen, 1999) and may have: a dispersion parameter (δD) between about 7.7 and about 8.5; a polarity parameter (δP) between about 4 and about 5.2; and a hydrogen bonding parameter (δH) between about 3.0 and about 3.6. Such parameters result in a Hansen Solubility Parameter (δ MPa) of about 9.0 to about 10.4, where δ^2=δD^2+δP^2+δH^2.
In alternative embodiments, a solvent composition according to the present disclosure may have: a dispersion parameter (δD) between about 7.5 and about 8; a polarity parameter (δP) between about 3 and about 4; and a hydrogen bonding parameter (δH) between about 3.2 and about 4. Such parameters result in a Hansen Solubility Parameter (δ MPa) of about 8.68 to about 9.79, where δ^2=δD^2+δP^2+δH^2. In some embodiments, a solvent composition according to the present disclosure includes a composition with HSP values similar to those of acetone. […]

For data set [3] the following is noted: reference solvents; cited from earlier work.
Data set [4] is described as follows: Evaporation rate relative to n-butyl acetate (=1). It counts as physicochemical. The conditions noted are these: Example 2. The text has this: Evaporation rates can be expressed relative to the evaporation of n-butyl acetate (=1), as a standard.
For data set [5] the following is noted: published value; cited from earlier work.
The conditions of data set [6]: cited from earlier work.

As to `COC(=O)OC` [DMC, dimethyl carbonate], in data set [1], the “δD (dispersion)” value was 8.5, the “δH (hydrogen bonding)” value is 1.9 and the “δP (polarity)” value is listed as 4.7.
As to `CC(=O)OC(C)(C)C` [TBA, tert-butyl acetate], in data set [1], the “δD (dispersion)” value is listed as 7, the “δH (hydrogen bonding)” value was 2.9 and the “δP (polarity)” value is 1.7. In addition, the “δ (MPa)” value in data set [2] is reported as 7.765 MPa.
On to `CCOC(C)=O` [Ethyl acetate, ethyl acetate], for which, in data set [1], the “δD (dispersion)” value is listed as 7.7, the “δH (hydrogen bonding)” value is given as 3.5 and the “δP (polarity)” value is recorded as 2.3.
As to `CC(C)=O` [Acetone, acetone, reference compound], the flash point in data set [3] was −20 °C. Further, in data set [1], the “δD (dispersion)” value is on record as 7.7, the “δH (hydrogen bonding)” value is on record as 3.5 and the “δP (polarity)” value is listed as 5.2. The “δ (MPa)” value in data set [2] was found to be 9.929 MPa.
For `CCC(C)=O` [MEK, methyl ethyl ketone, reference compound], in data set [3], the flash point is −9 °C. For the same compound, in data set [1], the “δD (dispersion)” value was 7.82, the “δH (hydrogen bonding)” value is given as 2.49 and the “δP (polarity)” value was 4.4. In data set [4], the evaporation rate is given as 3.8. Further, the “published MEK ER” value in data set [5] is reported as 4.0.
Turning to `COC(C)=O` [Methyl acetate, methyl acetate], the flash point in data set [3] is −4 °C. Further, in data set [1], the “δD (dispersion)” value is on record as 7.58, the “δH (hydrogen bonding)” value is on record as 3.72 and the “δP (polarity)” value is reported as 3.52. In data set [6] (room temperature), the solubility in water was 25%. The stability result in data set [6] (strong aqueous bases or aqueous acids) is “not stable”.
As for `CC1COC(=O)O1` (stereo not drawn) [PC, propylene carbonate], in data set [1], the “δD (dispersion)” value is recorded as 9.8, the “δH (hydrogen bonding)” value is 2 and the “δP (polarity)” value is reported as 8.8.
Take `FC(F)(F)c1ccc(Cl)cc1` [PCBTF, parachlorobenzotrifluoride]: in data set [1], the “δD (dispersion)” value is 8.8, the “δH (hydrogen bonding)” value is 1.9 and the “δP (polarity)” value is reported as 2.9.

(Values after US8961680B2, “Solvent formulations” (TBF Environmental Technology Inc., priority 2013, dated 2015).)
